Assay results as given in patent publication US8952024B2, “Herbicidal pyrimidone derivatives” (E I du Pont de Nemours and Company, priority 2009, dated 2015).

Columns and labels:
Assay type in all cases: in vivo
[1] = system: pigweed (Amaranthus retroflexus); assay: Test B pre-/postemergence plant response
Excerpt: (§1) Seeds of plant species selected from blackgrass (Alopecurus myosuroides), downy bromegrass (Bromus tectorum), green foxtail (Setaria viridis), Italian ryegrass (Lolium multiflorum), wheat (Triticum aestivum), wild oat (Avena fatua), deadnettle (henbit deadnettle, Lamium amplexicaule), galium (catchweed bedstraw, Galium aparine), bermudagrass (Cynodon dactylon), Surinam grass (Brachiaria decumbens), cocklebur (Xanthium strumarium), corn (Zea mays), large crabgrass (Digitaria sanguinalis), woolly cupgrass (Eriochloa villosa), giant foxtail (Setaria faberii), goosegrass (Eleusine indica), johnsongrass (Sorghum halepense), kochia (Kochia scoparia), lambsquarters (Chenopodium album), morningglory (Ipomoea coccinea), nightshade (eastern black nightshade, Solanum ptycanthum), yellow nutsedge (Cyperus esculentus), pigweed (Amaranthus retroflexus), ragweed (common ragweed, Ambrosia elatior), Russian thistle (Salsola kali), soybean (Glycine max), sunflower (common oilseed sunflower, Helianthus annuus) and velvetleaf (Abutilon theophrasti) were planted into a blend of loam soil and sand and treated preemergence with test compounds formulated in a non-phytotoxic solvent mixture which included a surfactant.
(§2) At the same time, plants selected from these crop and weed species and also winter barley (Hordeum vulgare), canarygrass (Phalaris minor), chickweed (Stellaria media) and windgrass (Apera spica-venti) were planted in pots containing Redi-Earth® planting medium (Scotts Company, 14111 Scottslawn Road, Marysville, Ohio 43041) comprising spaghnum peat moss, vermiculite, wetting agent and starter nutrients and treated with postemergence applications of some of the test chemicals formulated in the same manner. Plants ranged in height from 2 to 18 cm (1- to 4-leaf stage) for postemergence treatments.
(§3) Treated plants and controls were maintained in a greenhouse for 13 to 15 days, after which time all treated plants were visually evaluated and compared to controls. Plant response ratings, summarized in Table B, are based on a scale of 0 to 100 where 0 is no effect and 100 is complete control. A dash (-) response means no test result.

[2] = system: yellow nutsedge (Cyperus esculentus); assay: Test B pre-/postemergence plant response
Excerpt: as §1, §2, §3

soybean (Glycine max) = assay: Test B pre-/postemergence plant response
Excerpt: as §1, §2, §3

[3] = system: green foxtail (Setaria viridis); assay: Test B pre-/postemergence plant response
Excerpt: as §1, §2, §3

[4] = system: lambsquarters (Chenopodium album); assay: Test B pre-/postemergence plant response
Excerpt: as §1, §2, §3

[5] = system: giant foxtail (Setaria faberii); assay: Test B pre-/postemergence plant response
Excerpt: as §1, §2, §3

[6] = system: johnsongrass (Sorghum halepense); assay: Test B pre-/postemergence plant response
Excerpt: as §1, §2, §3

corn (Zea mays) = assay: Test B pre-/postemergence plant response
Excerpt: as §1, §2, §3

[7] = system: velvetleaf (Abutilon theophrasti); assay: Test B pre-/postemergence plant response
Excerpt: as §1, §2, §3

[8] = system: goosegrass (Eleusine indica); assay: Test B pre-/postemergence plant response
Excerpt: as §1, §2, §3

[9] = system: canarygrass (Phalaris minor); assay: Test B postemergence plant response
Excerpt: as §2, §3

[10] = system: chickweed (Stellaria media); assay: Test B postemergence plant response
Excerpt: as §2, §3

[11] = system: winter barley (Hordeum vulgare); assay: Test B postemergence plant response
Excerpt: as §2, §3

[12] = system: windgrass (Apera spica-venti); assay: Test B postemergence plant response
Excerpt: as §2, §3

[13] = 31 g ai/ha, postemergence, scale 0 to 100, 0 is no effect, 100 is complete control
[14] = 62 g ai/ha, postemergence, 0 is no effect, 100 is complete control, 13 to 15 days
[15] = Postemergence, 250 g ai/ha, scale 0 to 100 (0 no effect, 100 complete control)
[16] = Postemergence, 125 g ai/ha, visual rating after 13 to 15 days, scale 0 (no effect) to 100 (complete control)
[17] = Postemergence, 31 g ai/ha, 0 to 100 scale (0 no effect, 100 complete control)
[18] = Postemergence, 62 g ai/ha, scale 0 to 100 (0 no effect, 100 complete control)
[19] = Postemergence, 125 g ai/ha, scale 0 (no effect) to 100 (complete control), 13 to 15 days
[20] = Postemergence, 250 g ai/ha, scale 0 to 100 (0 no effect, 100 complete control), 13 to 15 days

Structure (SMILES): COCCn1c(-c2ccccc2)ncc(C(=O)C2=C(O)CCCC2=O)c1=O [Compound 85]
- Plant response rating, Pigweed [1, 13]: 100
- Pigweed plant response rating (0 to 100 scale) [1, 14]: 100
- Plant response rating, Pigweed [1, 15]: 100
- Plant response rating, Nutsedge, Yellow [2, 13]: 75
- Nutsedge, Yellow plant response rating (0 to 100 scale) [2, 14]: 85
- Plant response rating, Nutsedge, Yellow [2, 15]: 85
- Plant response rating, Soybean (soybean (Glycine max); [13]): 80
- Soybean plant response rating (0 to 100 scale) (soybean (Glycine max); [14]): 85
- Plant response rating, Soybean (soybean (Glycine max); [15]): 95
- Plant response rating, Foxtail, Green [3, 13]: 80
- Foxtail, Green plant response rating (0 to 100 scale) [3, 14]: 95
- Plant response rating, Foxtail, Green [3, 15]: 98
- Plant response rating, Lambsquarters [4, 13]: 98
- Lambsquarters plant response rating (0 to 100 scale) [4, 14]: 98
- Plant response rating, Lambsquarters [4, 15]: 100
- Plant response rating, Foxtail, Giant [5, 13]: 75
- Foxtail, Giant plant response rating (0 to 100 scale) [5, 14]: 80
- Plant response rating, Foxtail, Giant [5, 15]: 98
- Plant response rating, Johnsongrass [6, 13]: 80
- Johnsongrass plant response rating (0 to 100 scale) [6, 14]: 95
- Plant response rating, Johnsongrass [6, 15]: 98
- Plant response rating, Corn (corn (Zea mays); [13]): 50
- Corn plant response rating (0 to 100 scale) (corn (Zea mays); [14]): 70
- Plant response rating, Corn (corn (Zea mays); [16]): 85
- Plant response rating, Corn (corn (Zea mays); [15]): 85
- Plant response rating, Velvetleaf [7, 13]: 90
- Velvetleaf plant response rating (0 to 100 scale) [7, 14]: 98
- Plant response rating, Velvetleaf [7, 15]: 98
- Plant response rating, Goosegrass [8, 13]: 70
- Goosegrass plant response rating (0 to 100 scale) [8, 14]: 70
- Plant response rating, Goosegrass [8, 15]: 85
- Plant response rating, Canarygrass [9, 13]: 35
- Canarygrass plant response rating (0 to 100 scale) [9, 14]: 40
- Plant response rating, Canarygrass [9, 16]: 55
- Plant response rating, Canarygrass [9, 15]: 60
- Plant response rating, Chickweed [10, 13]: 85
- Chickweed plant response rating (0 to 100 scale) [10, 14]: 95
- Plant response rating, Chickweed [10, 16]: 95
- Plant response rating, Chickweed [10, 15]: 98
- Plant response rating, Barley [11, 13]: 5
- Barley plant response rating (0 to 100 scale) [11, 14]: 10
- Plant response rating, Barley [11, 16]: 20
- Plant response rating, Barley [11, 15]: 20
- Plant response rating, Windgrass [12, 13]: 40
- Windgrass plant response rating (0 to 100 scale) [12, 14]: 70
- Plant response rating, Windgrass [12, 15]: 95

Structure (SMILES): CCn1c(-c2ccccc2)ncc(C(=O)C2=C(O)C3CCC(C3)C2=O)c1=O (centres unmarked) [Compound 239]
- Plant response rating, Pigweed [1, 17]: 95
- Plant response rating, Pigweed [1, 18]: 98
- Plant response rating, Pigweed [1, 19]: 98
- Plant response rating, Pigweed [1, 20]: 100
- Plant response rating, Nutsedge, Yellow [2, 17]: 30
- Plant response rating, Nutsedge, Yellow [2, 18]: 30
- Plant response rating, Nutsedge, Yellow [2, 19]: 65
- Plant response rating, Nutsedge, Yellow [2, 20]: 70
- Plant response rating, Soybean (soybean (Glycine max); [17]): 70
- Plant response rating, Soybean (soybean (Glycine max); [18]): 95
- Plant response rating, Soybean (soybean (Glycine max); [19]): 98
- Plant response rating, Soybean (soybean (Glycine max); [20]): 98
- Plant response rating, Foxtail, Green [3, 17]: 80
- Plant response rating, Foxtail, Green [3, 18]: 85
- Plant response rating, Foxtail, Green [3, 19]: 90
- Plant response rating, Foxtail, Green [3, 20]: 95
- Plant response rating, Lambsquarters [4, 17]: 98
- Plant response rating, Lambsquarters [4, 18]: 98
- Plant response rating, Lambsquarters [4, 19]: 100
- Plant response rating, Lambsquarters [4, 20]: 100
- Plant response rating, Foxtail, Giant [5, 17]: 75
- Plant response rating, Foxtail, Giant [5, 18]: 85
- Plant response rating, Foxtail, Giant [5, 19]: 90
- Plant response rating, Foxtail, Giant [5, 20]: 98
- Plant response rating, Johnsongrass [6, 17]: 0
- Plant response rating, Johnsongrass [6, 18]: 20
- Plant response rating, Johnsongrass [6, 19]: 60
- Plant response rating, Corn (corn (Zea mays); [17]): 5
- Plant response rating, Corn (corn (Zea mays); [18]): 45
- Plant response rating, Corn (corn (Zea mays); [19]): 45
- Plant response rating, Corn (corn (Zea mays); [20]): 75
- Plant response rating, Velvetleaf [7, 17]: 100
- Plant response rating, Velvetleaf [7, 18]: 100
- Plant response rating, Velvetleaf [7, 19]: 100
- Plant response rating, Velvetleaf [7, 20]: 100
- Plant response rating, Goosegrass [8, 17]: 80
- Plant response rating, Goosegrass [8, 18]: 98
- Plant response rating, Goosegrass [8, 19]: 98
- Plant response rating, Goosegrass [8, 20]: 100
- Plant response rating, Canarygrass [9, 17]: 0
- Plant response rating, Canarygrass [9, 18]: 0
- Plant response rating, Canarygrass [9, 19]: 0
- Plant response rating, Canarygrass [9, 20]: 0
- Plant response rating, Chickweed [10, 17]: 90
- Plant response rating, Chickweed [10, 18]: 98
- Plant response rating, Chickweed [10, 19]: 98
- Plant response rating, Chickweed [10, 20]: 100
- Plant response rating, Barley [11, 17]: 0
- Plant response rating, Barley [11, 18]: 0
- Plant response rating, Barley [11, 19]: 5
- Plant response rating, Barley [11, 20]: 5
- Plant response rating, Windgrass [12, 17]: 20
- Plant response rating, Windgrass [12, 18]: 30
- Plant response rating, Windgrass [12, 19]: 30
- Plant response rating, Windgrass [12, 20]: 70
